Experimental data published in ChEMBL document CHEMBL5113477, “Membrane acting Povarov-Doebner derived compounds potently disperse preformed multidrug resistant Gram-positive bacterial biofilms” (Eur J Med Chem, 2022).
In brackets after ≈: the same amount, converted by molar mass. Activity calls are given as the source filed them. The rule behind the calls is not given here.

Key:
Enterococcus faecium [1] = assay: (§1) Synergistic antibiofilm activity against vancomycin-resistant Enterococcus faecium ATCC 700221 in TSB broth assessed as dispersal of glucose-induced biofilm by measuring fractional inhibitory concentration index preincubated with glucose for 48 hrs followed by compound addition and further incubated for 24 hrs in presence of Nitroxoline by crystal violet staining based checkerboard assay; format: functional
Staphylococcus aureus [2] = assay: Antibiofilm activity against methicillin-resistant Staphylococcus aureus ATCC 33592 in TSB broth assessed as dispersal of glucose-induced biofilm at 8 to 16 ug/ml preincubated with glucose for 48 hrs followed by compound addition and measured after 24 hrs by crystal violet staining based analysis; format: functional; details: dose 8-16 µg/ml, at 8 to 16 µg/mL
Staphylococcus aureus [3] = assay: (§2) Synergistic antibiofilm activity against methicillin-resistant Staphylococcus aureus USA 300 in TSB broth assessed as dispersal of glucose-induced biofilm at 4 ug/ml preincubated with glucose for 48 hrs followed by compound addition and further incubated for 24 hrs in presence of Bithionol by crystal violet staining based assay; format: functional; details: dose 4 µg/ml
Enterococcus faecalis [4] = assay: Inhibition of biofilm formation in vancomycin-resistant Enterococcus faecalis ATCC 51575 in TSB broth at 0.0078 to 4 ug/ml incubated for 48 hrs in presence of glucose by crystal violet staining based analysis; format: functional, organism-based; details: dose 0.0078-4 µg/ml
Staphylococcus aureus [5] = assay: Inhibition of DNA synthesis in Staphylococcus aureus ATCC 25923 at 0.25 to 8 ug/ml by [methyl]-thymidine incorporation assay; format: functional, organism-based; details: dose 0.25-8 µg/ml
Staphylococcus aureus [6] = assay: as §2, with “biofilm” for “biofilm at 4 ug/ml”, “based checkerboard” for “based”; format: functional
Staphylococcus aureus [7] = assay: Antibacterial activity against methicillin-resistant Staphylococcus aureus USA 300 (ARLG 1568) assessed as reduction in visible bacterial growth incubated for 18 to 20 hrs by CLSI based broth microdilution analysis; format: functional; details: time 18-20 hrs
Cell membrane [8] = assay: Induction of membrane permeabilization in Staphylococcus aureus ATCC 25923 measured every 3 mins for 180 mins by sytox green dye based flow cytometry analysis; format: subcellular; details: dose 0.5-4 µg/ml, DDE = dose-dependent effect
Staphylococcus aureus [9] = assay: Synergistic antibiofilm activity against methicillin-resistant Staphylococcus aureus USA 300 in TSB broth assessed as dispersal of glucose-induced biofilm at 1 ug/ml preincubated with glucose for 48 hrs followed by compound addition and further incubated for 24 hrs in presence of 1 ug/ml Bithionol and AgNO3 by crystal violet staining based analysis; format: functional; details: dose 1 µg/ml
Staphylococcus aureus [10] = assay: Antibacterial activity against methicillin-resistant Staphylococcus aureus USA 300 (ARLG 1569) assessed as reduction in visible bacterial growth incubated for 18 to 20 hrs by CLSI based broth microdilution analysis; format: functional; details: time 18-20 hrs
Staphylococcus aureus [11] = assay: Inhibition of cell wall synthesis in Staphylococcus aureus ATCC 25923 at 0.25 to 8 ug/ml by [glucosamine-6-3H]-N-acetyl-D-glucosamine incorporation assay; format: functional, organism-based; details: dose 0.25-8 µg/ml
Enterococcus faecalis [12] = assay: as §1, with “faecalis” for “faecium”, “51575” for “700221”; format: functional
Staphylococcus aureus [13] = assay: as §2, with “by measuring fractional inhibitory concentration index” for “at 4 ug/ml”, “based checkerboard” for “based”; format: functional
Cell membrane [14] = assay: Induction of membrane depolarization in Staphylococcus aureus ATCC 25923 at 2 ug/ml incubated for 1 hr by DiOC23 dye based flow cytometry analysis; format: subcellular; details: dose 2.0 µg/ml
Staphylococcus aureus [15] = assay: Antibacterial activity against methicillin-resistant Staphylococcus aureus USA 300 (ARLG 1665) assessed as reduction in visible bacterial growth incubated for 18 to 20 hrs by CLSI based broth microdilution analysis; format: functional; details: time 18-20 hrs
Staphylococcus aureus [16] = assay: Antibacterial activity against methicillin-resistant Staphylococcus aureus USA 300 (ARLG 1561) assessed as reduction in visible bacterial growth incubated for 18 to 20 hrs by CLSI based broth microdilution analysis; format: functional; details: time 18-20 hrs
Staphylococcus aureus [17] = assay: Antibacterial activity against Staphylococcus aureus ATCC 25923 assessed as reduction in visible bacterial growth incubated for 18 to 20 hrs by CLSI based broth microdilution analysis; format: functional; details: time 18-20 hrs
Enterococcus faecium [18] = assay: as §1, with “Bithionol” for “Nitroxoline”; format: functional
Staphylococcus aureus [19] = assay: (§3) Antibiofilm activity against methicillin-resistant Staphylococcus aureus USA 300 in TSB broth assessed as dispersal of glucose-induced biofilm preincubated with glucose for 48 hrs followed by compound addition and measured after 24 hrs by crystal violet staining based analysis; format: functional
Enterococcus faecalis [20] = assay: Antibacterial activity against Enterococcus faecalis ATCC 29212 assessed as reduction in visible bacterial growth incubated for 18 to 20 hrs by CLSI based broth microdilution analysis; format: functional; details: time 18-20 hrs
Enterococcus faecium [21] = assay: Inhibition of biofilm formation in vancomycin-resistant Enterococcus faecium ATCC 700221 in TSB broth at 0.0078 to 4 ug/ml incubated for 48 hrs in presence of glucose by crystal violet staining based analysis; format: functional, organism-based; details: dose 0.0078-4 µg/ml
Staphylococcus aureus [22] = assay: Bactericidal activity against persister methicillin-resistant Staphylococcus aureus USA 300 at 1 times MIC incubated for 4 hrs by time kill assay; format: functional
Staphylococcus aureus [23] = assay: Bactericidal activity against persister methicillin-resistant Staphylococcus aureus ATCC 33592 at 1 times MIC incubated for 8 hrs by time kill assay; format: functional
Staphylococcus aureus [24] = assay: Inhibition of protein synthesis in Staphylococcus aureus ATCC 25923 at 0.25 to 8 ug/ml by [3H]-I-leucine incorporation assay; format: functional; details: dose 0.25-8 µg/ml
Staphylococcus aureus [25] = assay: Antibacterial activity against methicillin-resistant Staphylococcus aureus USA 300 (ARLG 1663) assessed as reduction in visible bacterial growth incubated for 18 to 20 hrs by CLSI based broth microdilution analysis; format: functional; details: time 18-20 hrs
Staphylococcus aureus [26] = assay: as §3, with “Synergistic antibiofilm” for “Antibiofilm”, “biofilm by measuring Bithionol MBEC” for “biofilm”, “checkerboard assay” for “analysis”; format: functional
Staphylococcus aureus [27] = assay: as §2, with “biofilm” for “biofilm at 4 ug/ml”, “Nitroxoline” for “Bithionol”, “based checkerboard” for “based”; format: functional
Staphylococcus aureus [28] = assay: Antibacterial activity against methicillin-resistant Staphylococcus aureus USA 300 (ARLG 1567) assessed as reduction in visible bacterial growth incubated for 18 to 20 hrs by CLSI based broth microdilution analysis; format: functional; details: time 18-20 hrs
Enterococcus faecalis [29] = assay: as §1, with “faecalis” for “faecium”, “51575” for “700221”, “biofilm” for “biofilm by measuring fractional inhibitory concentration index”, “Bithionol” for “Nitroxoline”; format: functional
Staphylococcus aureus [30] = assay: Antibacterial activity against methicillin-resistant Staphylococcus aureus USA 300 (ARLG 1644) assessed as reduction in visible bacterial growth incubated for 18 to 20 hrs by CLSI based broth microdilution analysis; format: functional; details: time 18-20 hrs
Staphylococcus aureus [31] = assay: Antibacterial activity against methicillin-resistant Staphylococcus aureus USA 300 (ARLG 1570) assessed as reduction in visible bacterial growth incubated for 18 to 20 hrs by CLSI based broth microdilution analysis; format: functional; details: time 18-20 hrs

Oc1ccc([C@@H]2Nc3ccc(S(F)(F)(F)(F)F)cc3[C@H]3[C@@H]4CC[C@@H](C4)[C@H]32)cc1
fractional inhibitory concentration index (FICI) (Enterococcus faecium [1]): 0.16
Activity (Staphylococcus aureus [2]): 70%
Activity (Staphylococcus aureus [3]): >80%
inhibition (Enterococcus faecalis [4]): Active
inhibition (Staphylococcus aureus [5]): Active
MBEC (Staphylococcus aureus [6]): 4 µg/mL
MBC (Staphylococcus aureus [7]): 2 µg/mL (≈ 4.79 µM)
MIC (Staphylococcus aureus [7]): 2 µg/mL (≈ 4.79 µM)
Activity (Cell membrane [8]): Dde
Activity (Staphylococcus aureus [9]): >80%
MBC (Staphylococcus aureus [10]): 2 µg/mL (≈ 4.79 µM)
MIC (Staphylococcus aureus [10]): 1 µg/mL (≈ 2.4 µM)
inhibition (Staphylococcus aureus [11]): Active
fractional inhibitory concentration index (FICI) (Enterococcus faecalis [12]): 0.38
fractional inhibitory concentration index (FICI) (Staphylococcus aureus [13]): 0.25
Activity (Cell membrane [14]): Active
MBC (Staphylococcus aureus [15]): 2 µg/mL (≈ 4.79 µM)
MIC (Staphylococcus aureus [15]): 1 µg/mL (≈ 2.4 µM)
MBC (Staphylococcus aureus [16]): 2 µg/mL (≈ 4.79 µM)
MIC (Staphylococcus aureus [16]): 2 µg/mL (≈ 4.79 µM)
MBC (Staphylococcus aureus [17]): 2 µg/mL (≈ 4.79 µM)
MIC (Staphylococcus aureus [17]): 2 µg/mL (≈ 4.79 µM)
fractional inhibitory concentration index (FICI) (Enterococcus faecium [18]): 0.28
MBEC (Staphylococcus aureus [19]): 32 µg/mL
MBC (Enterococcus faecalis [20]): 2 µg/mL (≈ 4.79 µM)
MIC (Enterococcus faecalis [20]): 2 µg/mL (≈ 4.79 µM)
inhibition (Enterococcus faecium [21]): Active
Activity (Staphylococcus aureus [22]): 100%
Activity (Staphylococcus aureus [23]): 100%
inhibition (Staphylococcus aureus [24]): Active
MBC (Staphylococcus aureus [25]): 2 µg/mL (≈ 4.79 µM)
MIC (Staphylococcus aureus [25]): 0.5 µg/mL (≈ 1.2 µM)
MBEC (Staphylococcus aureus [26]): 1 µg/mL
MBEC (Staphylococcus aureus [27]): 1 µg/mL
MBC (Staphylococcus aureus [28]): 2 µg/mL (≈ 4.79 µM)
MIC (Staphylococcus aureus [28]): 2 µg/mL (≈ 4.79 µM)
MBEC (Enterococcus faecalis [29]): 2 µg/mL
MBC (Staphylococcus aureus [30]): 2 µg/mL (≈ 4.79 µM)
MIC (Staphylococcus aureus [30]): 1 µg/mL (≈ 2.4 µM)
MBC (Staphylococcus aureus [31]): 2 µg/mL (≈ 4.79 µM)
MIC (Staphylococcus aureus [31]): 1 µg/mL (≈ 2.4 µM)
